Data as given in patent US20160257697A1, “THIOPHENE-SUBSTITUTED TETRACYCLIC COMPOUNDS AND METHODS OFUSE THEREOF FOR THE TREATMENT OF VIRAL DISEASES” (priority 2013, published 2016).
Like-named read-outs stand apart in the source and are kept apart here.

What was measured:
Assay in all cases: microbe, parasite or virus in culture
Format in all cases: cell-based, Hepatitis C virus (HCV)
[1] = system: HCV replicon 2B; conditions: Replicon Assay A
In short: (§1)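 Read-out is replicon RNA per cell by real-time RT-PCR, normalised to cyclophilin mRNA amplified in the same well. Cells were exposed to compound for 3 days at 2000 cells/well in medium with 5% fetal bovine serum and 0.5% DMSO.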

[2] = system: HCV replicon 1AY93H; conditions: Replicon Assay A
In short: as §1

[3] = system: HCV replicon 1A; conditions: Replicon Assay A
In short: as §1

[4] = system: HCV replicon 1B; conditions: Replicon Assay B
[5] = system: HCV replicon 1AQ30D; conditions: Replicon Assay B
[6] = read-out: 2B IC50, HCV replicon 2B
[7] = read-out: 1A Y93H IC50, HCV replicon 1A Y93H
[8] = Hepatitis C virus, HCV replicon 1A
[9] = Hepatitis C virus, HCV replicon 1B
[10] = Hepatitis C virus, read-out: 1A Q30D IC50, HCV replicon 1A Q30D
[11] = read-out: 1A Y93H IC50, replicon 1AY93H
[12] = Hepatitis C virus, read-out: 1A Q30D IC50 (nM), replicon 1AQ30D
[13] = read-out: 1A Q30D IC50, replicon 1AQ30D
[14] = Hepatitis C virus, read-out: 2B IC50 (nM), replicon 2B
[15] = Hepatitis C virus, read-out: 1A Y93H IC50 (nM), replicon 1AY93H

SMILES | IC50 ([1]; read-out: 2B IC50, replicon 2B) [nM] | IC50 [2, 11] [nM] | IC50 ([3]; replicon 1A) [pM] | IC50 ([4]; Hepatitis C virus, replicon 1B) [pM] | IC50 [5, 12] [nM] | other results
COC(=O)N[C@H](C(=O)N1CCC[C@H]1c1ncc(-c2cc(F)c3c(c2)OC(c2ccc(C(F)(F)F)s2)n2c-3cc3cc(-c4cnc([C@@H]5CCCN5C(=O)[C@@H](NC(=O)OC)C5CCOCC5)[nH]4)ccc32)[nH]1)C(C)C (single isomer, unassigned) [Compound 654] | – | – | – | – | – | IC50 [1, 6]: 0.0061 nM; IC50 [2, 7]: 0.0095 nM; IC50 [3, 8]: 1.1 pM; IC50 [4, 9]: 2 pM; IC50 [5, 10]: 0.0839 nM
COC(=O)NC(C(=O)N1CCC[C@H]1c1ncc(-c2cc(F)c3c(c2)OC(c2ccc(C4CCC4)s2)n2c-3cc3cc(-c4cnc([C@@H]5CCCN5C(=O)[C@@H](NC(=O)OC)C5CCOCC5)[nH]4)ccc32)[nH]1)C(C)(C)F (single isomer, unassigned) [Compound 248] | 0.076 | 0.11 | 2.5 | 3.2 | 0.43 | –
CCc1ccc(C2Oc3cc(-c4cnc([C@@H]5CCCN5C(=O)[C@@H](NC(=O)OC)C(C)C)[nH]4)cc(C)c3-c3cc4cc(-c5cnc([C@@H]6CCCN6C(=O)C(NC(=O)OC)C6C[C@@H](C)O[C@@H](C)C6)[nH]5)ccc4n32)s1 (single isomer, unassigned) [Compound 543] | – | – | – | – | – | IC50 [1, 6]: 0.0111 nM; IC50 [2, 7]: 0.0394 nM; IC50 [3, 8]: 5.43 pM; IC50 [4, 9]: 8.46 pM; IC50 [5, 10]: 0.311 nM
COC(=O)NC(C(=O)N1CCC[C@H]1c1ncc(-c2ccc3c(c2)cc2n3C(c3ccc(C4CC4)s3)Oc3cc(-c4cnc([C@@H]5CCCN5C(=O)[C@@H](NC(=O)OC)C(C)C)[nH]4)cc(F)c3-2)[nH]1)C1CCO[C@H](C)C1 (single isomer, unassigned) [Compound 139] | 0.11 | 0.085 | 1.9 | – | – | IC50 ([4]; replicon 1B): 1.4 pM; IC50 [5, 13]: 1.03 nM
COC(=O)N[C@H](C(=O)N1CCC[C@H]1c1ncc(-c2cc(F)c3c(c2)OC(c2cc4nccnc4s2)n2c-3cc3cc(-c4cnc([C@@H]5CCCN5C(=O)[C@@H](NC(=O)OC)C(C)C)[nH]4)ccc32)[nH]1)C(C)C (single isomer, unassigned) [Compound 48] | 0.016 | 0.027 | 1.9 | 1.7 | 0.54 | –
COC(=O)NC(C(=O)N1CCC[C@H]1c1ncc(-c2ccc3c(c2)cc2n3C(c3ccc(CC(C)(C)OC)s3)Oc3cc(-c4cnc([C@@H]5CCCN5C(=O)[C@@H](NC(=O)OC)C(C)C)[nH]4)cc(F)c3-2)[nH]1)C1CCOC(C)(C)C1 (stereo partly drawn) [Compound 848] | – | – | – | – | – | IC50 ([1]; Hepatitis C virus, read-out: 2B IC50, HCV replicon 2B): 0.026 nM; IC50 ([2]; Hepatitis C virus, read-out: 1A Y93H IC50, HCV replicon 1A Y93H): 0.01 nM; IC50 [3, 8]: 2.9 pM; IC50 [4, 9]: 4.5 pM; IC50 [5, 10]: 0.085 nM
COC(=O)N[C@H](C(=O)N1CCC[C@H]1c1ncc(-c2cc(F)c3c(c2)OC(c2ccc(C4CC4)s2)n2c-3c(F)c3cc(-c4cnc([C@@H]5CCCC5C(=O)[C@@H](NC(=O)OC)C5CCOCC5)[nH]4)ccc32)[nH]1)C(C)C (single isomer, unassigned) [Compound 363] | 0.0037 | 0.0048 | 1.5 | – | – | IC50 ([4]; replicon 1B): 2.1 pM; IC50 [5, 13]: 0.0439 nM
COC(=O)N[C@H](C(=O)N1CCC[C@H]1c1ncc(-c2cc(F)c3c(c2)OC(c2ccc(CCF)s2)n2c-3cc3cc(-c4cnc([C@@H]5CCCN5C(=O)[C@@H](NC(=O)OC)C(C)C)[nH]4)ccc32)[nH]1)C(C)C (single isomer, unassigned) [Compound 44] | 0.1 | 0.012 | 1.5 | 1.2 | 0.54 | –
COC(=O)N[C@H](C(=O)N1CCC[C@H]1c1ncc(-c2cc(F)c3c(c2)OC(c2ccc(-c4ccc(N=[N+]=[N-])cc4)s2)n2c-3cc3cc(-c4cnc([C@@H]5CCCN5C(=O)[C@@H](NC(=O)OC)C(C)C)[nH]4)ccc32)[nH]1)C(C)C (mixture of isomers) [Compound 264] | – | – | – | 4.3 | 0.7 | IC50 [1, 14]: 0.19 nM; IC50 [2, 15]: 0.029 nM; IC50 ([3]; Hepatitis C virus, replicon 1A): 3.7 pM
COC(=O)N[C@H](C(=O)N1CCC[C@H]1c1ncc(-c2ccc3c(c2)OC(c2cc4ccccc4s2)n2c-3cc3cc(-c4cnc([C@@H]5CCCN5C(=O)[C@@H](NC(=O)OC)C5CCOCC5)[nH]4)ccc32)[nH]1)C1CCOCC1 (single isomer, unassigned) [Compound 262] | 0.019 | 0.052 | – | 4 | – | IC50 ([3]; Hepatitis C virus, replicon 1A): 4.2 pM; IC50 [5, 13]: 0.12 nM
COC(=O)N[C@H](C(=O)N1CCC[C@H]1c1ncc(-c2ccc3c(c2)OC(c2ccc(C4CC4)s2)n2c-3cc3cc(-c4cnc([C@@H]5CCCN5C(=O)[C@@H](NC(=O)OC)C5CCOCC5)[nH]4)ccc32)[nH]1)C(C)C (single isomer, unassigned) [Compound 335] | 0.004 | 0.0052 | 2.5 | 1.2 | 0.0639 | –
COC(=O)NC(C(=O)N1CCC[C@H]1c1ncc(-c2ccc3c(c2)cc2n3C(c3cc(C)c(C)s3)Oc3cc(-c4cnc([C@@H]5CCCN5C(=O)[C@@H](NC(=O)OC)C(C)C)[nH]4)cc(F)c3-2)[nH]1)C(C)(C)F (single isomer, unassigned) [Compound 39] | – | 0.12 | 2 | 1 | 0.61 | IC50 [1, 14]: 0.45 nM
COC(=O)N[C@H](C(=O)N1CCC[C@@H]1c1ncc(-c2cc(F)c3c(c2)OC(c2ccc(C(C)C)s2)n2c-3cc3cc(-c4c[nH]c([C@@H]5CCCN5C(=O)[C@H](NC(=O)OC)C5C[C@@H](C)O[C@@H](C)C5)n4)ccc32)[nH]1)C(C)C (stereo partly drawn) [Compound 241] | 0.016 | 0.005 | 1.6 | – | – | IC50 ([4]; replicon 1B): 2.4 pM; IC50 [5, 13]: 0.033 nM
COC(=O)NC(C(=O)N1CCC[C@H]1c1ncc(-c2ccc3c(c2)cc2n3C(c3ccc(C4CC4)s3)Oc3cc(-c4cnc([C@@H]5CCCN5C(=O)C(NC(=O)OC)C(C)(C)F)[nH]4)cc(F)c3-2)[nH]1)C1C[C@@H](C)O[C@@H](C)C1 (single isomer, unassigned) [Compound 379] | – | – | – | 1.1 | 0.798 | IC50 [1, 14]: 0.178 nM; IC50 [2, 15]: 0.0803 nM; IC50 ([3]; Hepatitis C virus, replicon 1A): 2.2 pM
CCc1ccc(C2Oc3cc(-c4cnc([C@@H]5CCCN5C(=O)[C@@H](NC(=O)OC)C(C)C)[nH]4)ccc3-c3c(F)c4cc(-c5cnc([C@@H]6CCCN6C(=O)C(NC(=O)OC)C6C[C@@H](C)O[C@@H](C)C6)[nH]5)ccc4n32)s1 (single isomer, unassigned) [Compound 635] | – | – | – | – | – | IC50 [1, 6]: 0.0225 nM; IC50 [2, 7]: 0.0272 nM; IC50 ([3]; HCV replicon 1A): 2.4 pM; IC50 ([4]; HCV replicon 1B): 2.4 pM; IC50 ([5]; read-out: 1A Q30D IC50, HCV replicon 1A Q30D): 0.744 nM
COC(=O)N[C@H](C(=O)N1CCC[C@H]1c1ncc(-c2ccc3c(c2)OC(c2ccc(C4CC4)s2)n2c-3c(F)c3cc(-c4cnc([C@@H]5CCCN5C(=O)[C@@H](NC(=O)OC)C(C)C)[nH]4)ccc32)[nH]1)C(C)C (single isomer, unassigned) [Compound 604] | – | – | – | – | – | IC50 [1, 6]: 0.0624 nM; IC50 [2, 7]: 0.0318 nM; IC50 [3, 8]: 1.3 pM; IC50 ([4]; HCV replicon 1B): 1.1 pM; IC50 [5, 10]: 0.704 nM
COC(=O)N[C@H](C(=O)N1CCC[C@H]1c1ncc(-c2cc(F)c3c(c2)OC(c2ccc(C(=O)N(C)C)s2)n2c-3cc3cc(-c4cnc([C@@H]5CCCN5C(=O)[C@@H](NC(=O)OC)C(C)C)[nH]4)ccc32)[nH]1)C(C)C (single isomer, unassigned) [Compound 104] | 0.073 | 0.046 | 4.3 | 5.1 | 1.11 | –
COC(=O)NC(C(=O)N1CCC[C@H]1c1ncc(-c2cc(F)c3c(c2)OC(c2ccc(C4CC4)s2)n2c-3cc3cc(-c4cnc([C@@H]5CCCN5C(=O)[C@@H](NC(=O)OC)C(C)C)[nH]4)ccc32)[nH]1)C1C[C@@H](C)O[C@@H](C)C1 (stereo partly drawn) [Compound 188] | – | – | – | 1.2 | 0.02 | IC50 [1, 14]: 0.005 nM; IC50 [2, 15]: 0.002 nM; IC50 ([3]; Hepatitis C virus, replicon 1A): 1.7 pM
